Active and inactive are the calls of the source. No cut-off for these calls is given here.
Assays:
[1] = Selectivity index, ratio of CC50 for cytotoxicity against LPS/IFNgamma induced mouse RAW264.7 cells to IC50 for antiinflammatory activity in mouse RAW264.7 cells assessed as inhibition in LPS/IFNgamma-induced NO production; assay type: toxicity, cell-based; settings: RAW264.7 cells induced with LPS/IFNgamma, read-out: Ratio IC50
[2] = Cytotoxicity against LPS/IFNgamma induced mouse RAW264.7 cells assessed as inhibition of cell growth preincubated for 24 hrs followed by LPS/IFNgamma stimulation and measured after 24 hrs by SRB assay; assay type: toxicity, cell-based; settings: RAW264.7 cells induced with LPS/IFNgamma, time 48 hrs
RAW264.7 [3] = experiment: Antiinflammatory activity in mouse RAW264.7 cells assessed as inhibition in LPS/IFNgamma-induced NO production preincubated for 2 hrs followed by LPS/IFNgamma stimulation and measured after 24 hrs by Griess reagent based assay; assay type: functional, cell-based
[4] = Selectivity index, ratio of CC50 for cytotoxicity against TNF-alpha induced HEK293T cells to IC50 for inhibition of TNF-alpha induced NF-kappaB activation in HEK293T cells; assay type: toxicity, cell-based; settings: human, HEK293T cells induced with TNF-alpha; read-out: Ratio IC50
[5] = Cytotoxicity against TNF-alpha induced HEK293T cells assessed as inhibition of cell growth preincubated for 24 hrs followed by TNFalpha stimulation and measured after 4 hrs by SRB assay; assay type: toxicity, cell-based, HEK-293T; settings: human, HEK293T cells induced with TNF-alpha; time 28 hrs
[6] = Inhibition of TNF-alpha induced NF-kappaB activation in HEK293T cells preincubated for 4 hrs and followed by TNF-alpha stimulation and measured after 4 hrs by dual-luciferase reporter assay; assay type: cell-based; settings: Homo sapiens, HEK-293T
RAW264.7 [7] = experiment: Antiinflammatory activity in mouse RAW264.7 cells assessed as inhibition in LPS/IFNgamma-induced NO production at 200 uM preincubated for 2 hrs followed by LPS/IFNgamma stimulation and measured after 24 hrs by Griess reagent based assay relative to control; assay type: functional; settings: time 26 hrs
[8] = Toxicity in Kunming mouse assessed as number of mouse survived at 117 mg/kg, po measured for 15 days; assay type: organism-based; settings: in vivo, 360 h, time 15 day
[9] = Toxicity in Kunming mouse assessed as number of mouse survived at 82 mg/kg, po measured for 15 days; assay type: organism-based; settings: in vivo, 360 h, time 15 day
[10] = Toxicity in Kunming mouse assessed as number of mouse survived at 57 mg/kg, po measured for 15 days; assay type: organism-based; settings: in vivo, 360 h, time 15 day
[11] = Toxicity in po dosed Kunming mouse assessed as maximum tolerated dose; assay type: organism-based; settings: in vivo
[12] = Toxicity in Kunming mouse assessed as effect on kidney by measuring systemic edema at 117 mg/kg, po measured for 15 days; assay type: organism-based; settings: in vivo, 360 h, time 15 day
[13] = Toxicity in Kunming mouse assessed as increase in body weight at 40 mg/kg, po measured for 15 days (reference value: 12.38%); assay type: organism-based; settings: in vivo, 360 h, time 15 day
Mus musculus [14] = species on record: Mus musculus; experiment: Anti-inflammatory activity in C57BL/6 mouse model of DSS-induced acute ulcerative colitis; assay type: functional, organism-based
[15] = Toxicity in Kunming mouse assessed as number of mouse survived at 40 mg/kg, po measured for 15 days; assay type: organism-based; settings: in vivo, 360 h, time 15 day
Mus musculus [16] = experiment: Anti-inflammatory activity in C57BL/6 mouse model of DSS-induced acute ulcerative colitis assessed as reduction in ulcerations at 100 to 300 mg/kg, po administered once a day for 7 days by H and E staining based analysis; assay type: functional, organism-based; settings: dose 100-300 mg/kg, time 7.0 day
Mus musculus [17] = experiment: Anti-inflammatory activity in C57BL/6 mouse model of DSS-induced acute ulcerative colitis assessed as reduction in p65 expression in colon at 50 mg/kg, po administered once a day for 7 days by immunohistochemical analysis; assay type: functional, organism-based; settings: time 7.0 day
[18] = Toxicity in Kunming mouse assessed as number of mouse survived at 53 mg/kg, po measured for 15 days; assay type: organism-based; settings: in vivo, 360 h, time 15 day
[19] = Toxicity in Kunming mouse assessed as number of mouse survived at 66 mg/kg, po measured for 15 days; assay type: organism-based; settings: in vivo, 360 h, time 15 day
[20] = Toxicity in Kunming mouse assessed as increase in body weight at 42 mg/kg, po measured for 15 days (reference value: 12.38%); assay type: organism-based; settings: in vivo, 360 h, time 15 day
[21] = Toxicity in Kunming mouse assessed as number of mouse survived at 42 mg/kg, po measured for 15 days; assay type: organism-based; settings: in vivo, 360 h, time 15 day

CSC(=N)N
selectivity ratio [1]: > 15.8
CC50 at 24 h [2]: > 200 µM
IC50 (RAW264.7 [3]): 12.6 µM

COc1ccc(C#CC2CC3OC2c2cc(Br)c(Br)cc23)cc1 (centres undefined)
selectivity ratio [1]: 1.07
selectivity ratio [4]: 4.26
CC50 at 24 h [2]: 198 µM
CC50 at 4 h [5]: 140 µM
IC50 [6]: 39.4 µM
IC50 (RAW264.7 [3]): 186 µM

CCOC(=O)C1=C(C(=O)OCC)C2OC1CC2C#Cc1ccc(OC)cc1 (centres undefined)
selectivity ratio [1]: 3.73
selectivity ratio [4]: 4.34
CC50 at 24 h [2]: 18.9 µM
CC50 at 4 h [5]: 52.8 µM
IC50 [6]: 12.1 µM
IC50 (RAW264.7 [3]): 5.07 µM

COc1ccc(C#CC2CC3OC2c2c(OC)ccc(OC)c23)cc1 (centres undefined)
selectivity ratio [1]: 1.05
selectivity ratio [4]: 1.45
CC50 at 24 h [2]: 200 µM
CC50 at 4 h [5]: 199 µM
IC50 [6]: 137 µM
IC50 (RAW264.7 [3]): 190 µM

CC(C)(C)OC(=O)C1=C(C(=O)OC(C)(C)C)C2C=CC1O2
selectivity ratio [1]: 3.46
selectivity ratio [4]: 1.91
CC50 at 24 h [2]: 12.8 µM
CC50 at 4 h [5]: 80.3 µM
IC50 [6]: 42 µM
IC50 (RAW264.7 [3]): 3.7 µM

C1=CC2OC1c1ccccc12
selectivity ratio [4]: 5.65
inhibition at 200 µM (RAW264.7 [7]): ~30%
CC50 at 24 h [2]: > 200 µM
CC50 at 4 h [5]: 111 µM
IC50 [6]: 19.7 µM
IC50 (RAW264.7 [3]): > 200 µM

COc1cc2c(cc1OC)C1C=CC2O1
selectivity ratio [4]: 5.72
inhibition at 200 µM (RAW264.7 [7]): ~30%
CC50 at 24 h [2]: > 200 µM
CC50 at 4 h [5]: 114 µM
IC50 [6]: 19.9 µM
IC50 (RAW264.7 [3]): > 200 µM

COC(=O)C1=C(C(=O)OC)C2C=CC1O2
Activity [8]: 3
selectivity ratio [1]: 3.1
Activity [9]: 1
selectivity ratio [4]: 1.04
Activity [10]: 1
MTD [11]: 40 mg/kg
Activity [12]: Toxic
CC50 at 24 h [2]: 12.8 µM
CC50 at 4 h [5]: 99.9 µM
IC50 [6]: 96.1 µM
Activity [13]: 10.6%
Activity (Mus musculus [14]): inactive
Activity [15]: 0
IC50 (RAW264.7 [3]): 4.12 µM

C[C@@H]1C[C@H]2[C@@H]3CCC4=CC(=O)C=C[C@]4(C)[C@@]3(F)[C@@H](O)C[C@]2(C)[C@@]1(O)C(=O)CO [DEXAMETHASONE]
selectivity ratio [4]: > 16.4
CC50 at 4 h [5]: > 200 µM
IC50 [6]: 12.2 µM

COC(=O)C1=C(C(=O)OC)C2OC1CC2C#Cc1ccc(OC)cc1 (centres undefined)
selectivity ratio [1]: 4.15
selectivity ratio [4]: 0.9
CC50 at 24 h [2]: 7.51 µM
CC50 at 4 h [5]: 22.4 µM
IC50 [6]: 24.9 µM
IC50 (RAW264.7 [3]): 1.81 µM

COC(=O)C1=C(C(=O)OC)C2OC1CC2C#Cc1ccccc1OC (centres undefined)
selectivity ratio [1]: 1.45
selectivity ratio [4]: 3.09
CC50 at 24 h [2]: 5.46 µM
CC50 at 4 h [5]: 30.7 µM
IC50 [6]: 9.92 µM
Activity (Mus musculus [16]): Active
IC50 (RAW264.7 [3]): 3.77 µM

CCOC(=O)C1=C(C(=O)OCC)C2C=CC1O2
Activity [8]: 3
selectivity ratio [1]: 5.28
Activity [9]: 1
selectivity ratio [4]: 1.77
Activity [10]: 0
MTD [11]: 57 mg/kg
Activity [12]: Toxic
CC50 at 24 h [2]: 20.4 µM
CC50 at 4 h [5]: 59.9 µM
IC50 [6]: 33.7 µM
Activity [13]: 2.31%
Activity (Mus musculus [14]): inactive
Activity [15]: 0
IC50 (RAW264.7 [3]): 3.86 µM

COC(=O)C1=C(C(=O)OC)C2OC1CC2C#Cc1ccccc1 (centres undefined)
selectivity ratio [1]: 1.53
selectivity ratio [4]: 3.21
CC50 at 24 h [2]: 5.69 µM
CC50 at 4 h [5]: 62.1 µM
IC50 [6]: 19.3 µM
IC50 (RAW264.7 [3]): 3.72 µM

COC(=O)C1=C(C(=O)OC)C2OC1CC2C#Cc1ccc(Br)cc1 (centres undefined)
selectivity ratio [1]: 1.46
selectivity ratio [4]: 4.9
CC50 at 24 h [2]: 5.06 µM
CC50 at 4 h [5]: 21.7 µM
IC50 [6]: 4.42 µM
IC50 (RAW264.7 [3]): 3.47 µM

COc1ccc(OC)c2c1C1C=CC2O1
selectivity ratio [4]: 4.79
inhibition at 200 µM (RAW264.7 [7]): ~30%
CC50 at 24 h [2]: > 200 µM
CC50 at 4 h [5]: 118 µM
IC50 [6]: 24.6 µM
IC50 (RAW264.7 [3]): > 200 µM

Nc1ccc(O)c(C(=O)O)c1
Activity (Mus musculus [17]): inactive

O=C1OC(=O)C2C3CCC(O3)C12 (centres undefined) [DEMETHYL-CANTHARIDIN]
Activity [18]: 0
Activity [19]: 1
selectivity ratio [1]: 0.79
Activity [9]: 3
selectivity ratio [4]: > 1.91
Activity [20]: 15.62%
MTD [11]: 53 mg/kg
CC50 at 24 h [2]: 78.1 µM
CC50 at 4 h [5]: > 200 µM
IC50 [6]: 105 µM
Activity (Mus musculus [14]): inactive
IC50 (RAW264.7 [3]): 99.1 µM
Activity [21]: 0

COC(=O)C1=C(C(=O)OC)C2OC1CC2C#Cc1ccc(Cl)cc1 (centres undefined)
selectivity ratio [1]: 1.48
selectivity ratio [4]: 1.74
CC50 at 24 h [2]: 5.23 µM
CC50 at 4 h [5]: 20.9 µM
IC50 [6]: 12 µM
IC50 (RAW264.7 [3]): 3.53 µM

Brc1cc2c(cc1Br)C1C=CC2O1
selectivity ratio [4]: 2.7
inhibition at 200 µM (RAW264.7 [7]): ~30%
CC50 at 24 h [2]: > 200 µM
CC50 at 4 h [5]: 194 µM
IC50 [6]: 71.8 µM
IC50 (RAW264.7 [3]): > 200 µM

C[C@@]12C(=O)OC(=O)[C@]1(C)[C@H]1CC[C@@H]2O1 [CANTHARIDIN]
selectivity ratio [1]: 0.38
CC50 at 24 h [2]: 3.88 µM
IC50 (RAW264.7 [3]): 10.2 µM

COc1ccc(C#CC2CC3OC2c2cc(OC)c(OC)cc23)cc1 (centres undefined)
selectivity ratio [1]: 0.99
selectivity ratio [4]: 1.48
CC50 at 24 h [2]: 184 µM
CC50 at 4 h [5]: 198 µM
IC50 [6]: 133 µM
IC50 (RAW264.7 [3]): 185 µM

COC(=O)C1=C(C(=O)OC)C2OC1CC2C#Cc1ccc(F)cc1 (centres undefined)
selectivity ratio [1]: 1.67
selectivity ratio [4]: 4.75
CC50 at 24 h [2]: 6.25 µM
CC50 at 4 h [5]: 26.5 µM
IC50 [6]: 5.58 µM
IC50 (RAW264.7 [3]): 3.75 µM

COC(=O)C1=C(C(=O)OC)C2OC1CC2C#Cc1cc(OC)cc(OC)c1 (centres undefined)
selectivity ratio [1]: 1.37
selectivity ratio [4]: 5.45
CC50 at 24 h [2]: 5.06 µM
CC50 at 4 h [5]: 34.4 µM
IC50 [6]: 6.3 µM
IC50 (RAW264.7 [3]): 3.7 µM

COc1ccc(C#CC2CC3OC2c2ccccc23)cc1 (centres undefined)
selectivity ratio [1]: 1.19
selectivity ratio [4]: 1.15
CC50 at 24 h [2]: 191 µM
CC50 at 4 h [5]: 181 µM
IC50 [6]: 157 µM
IC50 (RAW264.7 [3]): 161 µM

Source: ChEMBL document CHEMBL5634091, “Cantharidin analogue alleviates dextran sulfate sodium-induced colitis in mice by inhibiting the activation of NF-κB signaling” (Eur J Med Chem, 2023)
